Read-outs that look alike come from different tables or passages of the source. Marks after values point to notes of the source that are not given here.
How the values were obtained:
[1] = system: HepG2 liver hepatocellular carcinoma; experiment: Cytotoxicity drug combination (isobole) assay HepG2; assay type: cell-based, human
Method: (§1) For the drug combination inhibitory assays, six drug preparations, of which four comprised combinations of either artemiside or artemisone with celastrol in a fixed ratio of 80:20, 60:40, 40:60, and 20:80 were prepared and screened against HepG2 liver hepatocellular carcinoma and LO2 human normal hepatocytes respectively. Two of these six preparations employed each of artemiside, artemisone or celastrol alone at a concentration approximately 5–7 times higher than the IC50 of the individual drug as presented in Table 4. […] Thus, six combinations for artemiside (µM) and celastrol (µM) prepared were 500:0, 400:4, 300:8, 200:12, 100:16, and 0:20, respectively.
(§2) As above for the malaria combination assays, a mean ΣFIC<1.0 represents a synergistic interaction, >1.3 represents an antagonistic interaction and ΣFIC = 1 represents an indifferent or additive interaction. Additivity, synergism and antagonism were also be established from the linear plots constructed from the FIC values of each of the drugs. A concave hyperbolic plot indicates synergism, a convex hyperbolic plot indicates an antagonistic interaction, and a straight line indicates an additive interaction. Isobole analysis of the combinations of each of artemiside and artemisone in combination with celastrol was performed against HepG2 and LO2 cells respectively. In Figure 5 is presented the isoboles for each drug combination.
(§3) Next, combinations of each of artemiside and artemisone with celastrol were examined, according to the method used to establish additivity/synergism described above. […] Against the normal hepatocyte LO2 cell line, whilst the interaction of artemisone with celastrol was synergistic, that of artemiside was additive. Synergism and additivity were also evident from the linear plots determined from the FIC values of each of the drugs (Table 5 and Figure 6). Thus, synergism is confirmed for combinations of the amino-artemisinins with celastrol against the HepG2 carcinoma cell line, and for artemisone-celastrol against human normal hepatocyte LO2.

[2] = system: asexual blood stage P. falciparum W2 (multidrug resistant); design: method as in Coertzen et al., 2018; Wong et al., 2019; settings: ref Coertzen et al., 2018, Wong et al., 2019, cited from earlier work
[3] = system: HepG2 liver hepatocellular carcinoma; experiment: MTT cytotoxicity assay HepG2; assay type: cell-based, human; settings: for IC50: Homo sapiens, read-out: IC50 HepG2; for SI, selectivity index IC50 normal cell line/IC50 tumour cell line: LO2/HepG2
Method: Proliferative and non-proliferative mammalian cell lines: human liver and lung cancer cell lines HepG2 and A549, and immortalized normal liver LO2 and lung BEAS-2B cells were purchased from ATCC (Manassas, VA, United States). Cells were cultured in RPMI-1640 medium supplemented with 10% fetal bovine serum and antibiotics penicillin (50 U/mL) and streptomycin (50 μg/ml; Invitrogen, United Kingdom). All cells were incubated at 37°C in a 5% humidified CO2 incubator.
All test compounds were dissolved in DMSO at a final concentration of 50 mM and stored at −20°C before use. Cytotoxicity was assessed with A549, HepG2, BEAS-2B and LO2 cells. The MTT assay with 3-(4,5-dimethylthiazole-2yl)-2,5-diphenyltetrazolium bromide (5 mg/ml) was performed as previously described ([Ng et al., 2022]). Briefly, 4 × 10^3 cells per well were seeded in 96-well plates before drug treatment. After overnight cell culture, the cells were exposed to different concentrations of selected compounds (0.19–100 μM) for 72 h. Cells without drug treatment were used as control. Next, 10 μl of the MTT solution was added to each well and incubated at 37°C for another 4 h. Solubilization buffer (100 μl) was then added (10 mM HCl in a solution of 10% of SDS) and incubated overnight. The absorbance A at 570 nm was measured on the next day. The percentage of cell viability was calculated using the following formula: Cell viability (%) = Atreated/Acontrol × 100. Dose response curves for all assays are given in the Supplementary Figures S3–S6.
Cytotoxicity was assessed for each of artemisinin, DHA and artemether, and the amino-artemisinins artemiside and artemisone, and celastrol against A549 human lung carcinoma, BEAS-2B non-tumorigenic human bronchial epithelium, HepG2 liver hepatocellular carcinoma and LO2 human normal hepatocytes using the MTT assay ([Ng et al., 2022]). Data are presented in Table 4, and dose response curves are given in the Supplementary Figures S3–S6.

[4] = system: immature stage II-III P. falciparum NF54 gametocytes; design: method as in Coertzen et al., 2018, Wong et al., 2019; settings: ref Coertzen et al., 2018, Wong et al., 2019, cited from earlier work
[5] = system: LO2 human normal hepatocytes; experiment: Cytotoxicity drug combination (isobole) assay LO2; assay type: cell-based
Method: as §1, §2, §3

[6] = system: asexual blood stage P. falciparum NF54 (drug sensitive); design: method as in Coertzen et al., 2018; Wong et al., 2019; settings: SYBR Green I, mean ± SEM, ref Coertzen et al., 2018, Wong et al., 2019; cited from earlier work
[7] = artemisone:celastrol drug ratio 20:80, HepG2
[8] = artemisone:celastrol drug ratio 40:60, HepG2
[9] = artemisone:celastrol drug ratio 60:40, HepG2
[10] = artemisone:celastrol drug ratio 80:20, HepG2
[11] = artemisone:celastrol drug ratio 20:80, LO2
[12] = artemisone:celastrol drug ratio 40:60, LO2
[13] = artemisone:celastrol drug ratio 60:40, LO2
[14] = artemisone:celastrol drug ratio 80:20, LO2

Compound: C[C@H]1[C@H](N2CCS(=O)(=O)CC2)O[C@@H]2O[C@@]3(C)CC[C@H]4[C@H](C)CC[C@@H]1[C@@]24OO3 [Artemisone, artemisone]
- FIC [1, 7]: 0.3
- FIC [1, 8]: 0.36
- FIC [1, 9]: 0.48
- FIC [1, 10]: 0.76
- IC50 ([2]; asexual blood stage, SYBR Green I, mean ± SEM): 1.6 ± 0.4 nM
- RI = IC50 W2/IC50 NF54 [2]: 1.36^f
- IC50 ([3]; HepG2, MTT, 72 h, ± SD): 580 ± 200 nM
- SI, selectivity index IC50 normal cell line/IC50 tumour cell line [3]: >171
- SI, selectivity index IC50 normal cell line/IC50 tumour cell line ([3]; listed as artemisone): > 170
- IC50 ([4]; NF54 gametocytes, luciferase, 48 h, mean ± SEM, read-out: Immature stage II-III (luc 48 h) IC50): 1.94 ± 0.11 nM
- Fold change preference ratio EG to LG ([4]; immature vs late stage gametocytes): 21.9
- FIC [5, 11]: 0.18
- FIC [5, 12]: 0.28
- FIC [5, 13]: 0.47
- FIC [5, 14]: 0.99
- IC50 [6]: 1.2 nM

Compound: CC1=C(O)C(=O)C=C2C1=CC=C1[C@@]2(C)CC[C@@]2(C)[C@@H]3C[C@](C)(C(=O)O)CC[C@]3(C)CC[C@]12C [Celastrol, celastrol]
- FIC ([1]; artemiside:celastrol drug ratio 20:80, HepG2): 0.35
- FIC ([1]; artemiside:celastrol drug ratio 40:60, HepG2): 0.34
- FIC ([1]; artemiside:celastrol drug ratio 60:40, HepG2): 0.14
- FIC ([1]; artemiside:celastrol drug ratio 80:20, HepG2): 0.08
- FIC [1, 7]: 0.88
- FIC [1, 8]: 0.4
- FIC [1, 9]: 0.23
- FIC [1, 10]: 0.14
- IC50 ([3]; HepG2, 72 h): 940 ± 100 nM
- SI, selectivity index IC50 normal cell line/IC50 tumour cell line [3]: 0.83
- SI, selectivity index IC50 normal cell line/IC50 tumour cell line ([3]; listed as celastrol): < 1
- FIC ([5]; artemiside:celastrol drug ratio 20:80, LO2): 1.2
- FIC ([5]; artemiside:celastrol drug ratio 40:60, LO2): 1.56
- FIC ([5]; artemiside:celastrol drug ratio 60:40, LO2): 1.03
- FIC ([5]; artemiside:celastrol drug ratio 80:20, LO2): 0.48
- FIC [5, 11]: 0.7
- FIC [5, 12]: 0.4
- FIC [5, 13]: 0.29
- FIC [5, 14]: 0.23

From article PMC9479156 (Frontiers in Pharmacology, 2022)
